Results reported in ChEMBL document CHEMBL5136971, “Virtual screening and in vitro validation identifies the first reported inhibitors of Salmonella enterica HPPK” (RSC Med Chem, 2021).
Blank lines part the entries; values can stand above or below the molecule they belong to. Activity calls are given as the source filed them. The calls are words filed in the database; no cut-off is given here.

Experiments:
[1] = Binding affinity to Escherichia coli HPPK
[2] = Inhibition of Escherichia coli HPPK
[3] = Inhibition of Salmonella enterica HPPK
[4] = Binding affinity to Salmonella enterica HPPK
[5] = tested on: Salmonella enterica; assay: Inhibition of Salmonella enterica HPPK at 50 uM incubated for 20 mins in presence of ATP by Kinase Glo luminescence assay
[6] = tested on: Escherichia coli; assay: Inhibition of Escherichia coli HPPK at 50 uM incubated for 20 mins in presence of ATP by Kinase Glo luminescence assay
[7] = Inhibition of Salmonella enterica HPPK incubated for 20 mins in presence of ATP by Kinase Glo luminescence assay

IC50 [3]: 25 µM | Kd [4]: 0.45 µM
Structure (SMILES): Nc1nc2[nH]c(SCc3ccccc3F)nc2c(=O)[nH]1

inhibition activity call (active/inactive) [5]: Active | inhibition [6]: Active
Structure (SMILES): O=C1CC(C(=O)Nc2cccc3ccccc23)C2(CCCCC2)O1 (stereo not given)

inhibition activity call (active/inactive) [5]: Active
Structure (SMILES): O=C(c1ccccc1F)N1CCN(c2ccc([N+](=O)[O-])c3ncccc23)CC1

The next lines start with the molecule.

Structure (SMILES): CC1(C)Nc2nc(N)[nH]c(=O)c2N=C1C(=O)NCCN1CC[C@@H](SC[C@H]2O[C@@H](n3cnc4c(N)ncnc43)[C@H](O)[C@@H]2O)C[C@@H]1C(=O)O
Kd [1]: 0.19 µM | IC50 [2]: 0.38 µM

Structure (SMILES): CC1(C)Nc2nc(N)[nH]c(=O)c2N=C1C(=O)NCCN1CCC(SC[C@H]2O[C@@H](n3cnc4c(N)ncnc43)[C@H](O)[C@@H]2O)CC1
Kd [1]: 2.5 µM | IC50 [2]: 3.2 µM

Structure (SMILES): Cc1ccc2c(C)c(C(=O)NCc3ccc(S(N)(=O)=O)cc3)oc2c1
inhibition activity call (active/inactive) [5]: Active | inhibition [6]: Active

Structure (SMILES): CCOC(=O)N1CCN(S(=O)(=O)c2ccc3c4c(cccc24)C(=O)N3)CC1
inhibition activity call (active/inactive) [5]: Active

Structure (SMILES): Cc1cccc(NC(=O)CN2C(=O)N/C(=C\c3cccn3-c3ccccc3)C2=O)c1
inhibition activity call (active/inactive) [5]: Active

Structure (SMILES): O=C(NCc1n[nH]c(=O)c2ccccc12)c1cccc(Cl)c1
IC50 [7]: 10.4 µM | inhibition activity call (active/inactive) [5]: Active
